Active and inactive are the calls of the source. The rule behind the calls is not given here.
Tests used:
Pseudomonas aeruginosa [1] = assay: Effect on swarming capacity of Pseudomonas aeruginosa PAO1 harboring wspF gene mutation assessed as increase in motility at 3.75 uM incubated for 14 hrs relative to control; format: functional
Bacteria [2] = assay: Effect on RocR (unknown origin) assessed as induction of c-di-GMP degradation at 1.25 to 5 uM measured by HPLC method; conditions: dose 1.25-5 µM
c-di-GMP G-quadruplex [3] = assay: Induction of c-di-GMP G-quadruplex formation in Pseudomonas aeruginosa PAO1 harboring wspF gene mutation assessed as induction of flhA expression at 1.25 uM incubated for 15 hrs by transcriptome analysis
Pseudomonas aeruginosa [4] = assay: Effect on swarming capacity of Pseudomonas aeruginosa PAO1 harboring wspF gene mutation assessed as increase in motility at 5 uM incubated for 14 hrs relative to control; format: functional
[5] = Cytotoxicity against human AC16 cells assessed as cell survival at 0.15625 to 10 uM incubated for 24 hrs by MTT assay relative to control; format: cell-based, AC16 [Human hybrid]; conditions: dose 0.15625-10 µM, read-out: Survival
Pseudomonas aeruginosa [6] = assay: Antibacterial activity against Pseudomonas aeruginosa PAO1 assessed as reduction in biofilm formation at 0.15625 to 1.25 uM by crystal violet staining method; format: functional, organism-based; conditions: dose 0.15625-1.25 µM
c-di-GMP G-quadruplex [7] = assay: Induction of c-di-GMP G-quadruplex formation in Pseudomonas aeruginosa PAO1 harboring wspF gene mutation assessed as suppression of cdrA expression at 1.25 uM incubated for 15 hrs by transcriptome analysis
c-di-GMP G-quadruplex [8] = assay: Induction of c-di-GMP G-quadruplex formation in Pseudomonas aeruginosa […] assessed as inhibition of biofilm formation at 0.15625 to 1.25 uM by confocal microscopic method; format: nucleic-acid assay; conditions: PAO1, dose 0.15625-1.25 µM
c-di-GMP G-quadruplex [9] = assay: Induction of c-di-GMP G-quadruplex formation in Pseudomonas aeruginosa PAO1 harboring wspF gene mutation and LacZ reporter gene assessed as reduction in PelA expression by measuring decrease in lacZ activity at 0.3125 to 1.25 uM incubated for 4 hrs by absorbance method; conditions: dose 0.3125-1.25 µM
[10] = Binding affinity to guanosine monophosphate (unknown origin) at 5 uM by fluorescence method
[11] = Binding affinity to d-NTP (unknown origin) at 5 uM by fluorescence method
c-di-GMP G-quadruplex [12] = assay: Downregulation of c-di-GMP level in Pseudomonas aeruginosa PAO1 harboring wspF gene mutation assessed as induction of tpbA expression at 1.25 uM incubated for 15 hrs by transcriptome analysis
c-di-GMP G-quadruplex [13] = assay: Downregulation of c-di-GMP level in Pseudomonas aeruginosa PAO1 harboring wspF gene mutation assessed as reduction in Alg44 expression at 1.25 uM incubated for 15 hrs by transcriptome analysis
c-di-GMP G-quadruplex [14] = assay: Induction of c-di-GMP G-quadruplex formation in Pseudomonas aeruginosa PAO1 harboring wspF gene mutation assessed as induction of flhF expression at 1.25 uM incubated for 15 hrs by transcriptome analysis
c-di-GMP G-quadruplex [15] = assay: Induction of c-di-GMP G-quadruplex formation in Pseudomonas aeruginosa PAO1 harboring wspF gene mutation assessed as inhibition of biofilm formation incubated for 20 hrs by crystal violet staining assay relative to control; format: nucleic-acid assay
[16] = Binding affinity to c-di-GMP (unknown origin) at 5 uM using varying level of c-di-GMP by fluorescence method
c-di-GMP G-quadruplex [17] = assay: Induction of c-di-GMP G-quadruplex formation in Pseudomonas aeruginosa PAO1 harboring wspF gene mutation assessed as inhibition of biofilm formation at 1.25 uM incubated for 20 hrs by crystal violet staining assay relative to control; format: nucleic-acid assay
c-di-GMP G-quadruplex [18] = assay: Induction of c-di-GMP G-quadruplex formation in Pseudomonas aeruginosa PAO1 harboring wspF gene mutation assessed as induction of fleN expression at 1.25 uM by RT-PCR method
[19] = Binding affinity to r-NTP (unknown origin) at 5 uM by fluorescence method
c-di-GMP G-quadruplex [20] = assay: Induction of c-di-GMP G-quadruplex formation in Pseudomonas aeruginosa PAO1 harboring wspF gene mutation assessed as induction of fliD expression at 1.25 uM incubated for 15 hrs by transcriptome analysis
[21] = Cytotoxicity against human AC16 cells assessed as cell survival at 1.25 uM incubated for 24 hrs by MTT assay relative to control; format: cell-based, AC16 [Human hybrid]; conditions: read-out: Survival
Pseudomonas aeruginosa [22] = assay: Effect on swarming capacity of Pseudomonas aeruginosa PAO1 harboring wspF gene mutation assessed as increase in motility at 2.5 uM incubated for 14 hrs relative to control; format: functional
Pseudomonas aeruginosa [23] = assay: Effect on extracellular polysaccharide in Pseudomonas aeruginosa PAO1 harboring wspF gene mutation assessed as reduction in EPS production at 1.25 uM by congo red binding assay relative to control; format: functional; parameters: scale not given: the % may be the effect or the level left
c-di-GMP G-quadruplex [24] = assay: Induction of c-di-GMP G-quadruplex formation in Pseudomonas aeruginosa PAO1 harboring wspF gene mutation assessed as reduction in pelB expression at 1.25 uM by RT-PCR method
DNA = assay: Toxicity assessed as induction of Escherichia coli pBR322 DNA intercalation activity at 10 uM incubated for 10 mins by polyacrylamide gel electrophoresis method
c-di-GMP G-quadruplex [25] = assay: Induction of c-di-GMP G-quadruplex formation in Pseudomonas aeruginosa PAO1 harboring wspF gene mutation assessed as reduction in pslE expression at 1.25 uM by RT-PCR method
Bacteria [26] = assay: Effect on WspR (unknown origin) assessed as reduction in c-di-GMP level at 1.25 to 5 uM measured by HPLC method; conditions: dose 1.25-5 µM
c-di-GMP G-quadruplex [27] = assay: Induction of c-di-GMP G-quadruplex formation in Pseudomonas aeruginosa PAO1 harboring wspF gene mutation assessed as reduction in cdrA expression at 1.25 uM by RT-PCR method
c-di-GMP G-quadruplex [28] = assay: Induction of c-di-GMP G-quadruplex formation in Pseudomonas aeruginosa PAO1 harboring wspF gene mutation assessed as induction of flhA expression at 1.25 uM by RT-PCR method
Pseudomonas aeruginosa [29] = assay: Effect on extracellular polysaccharide in Pseudomonas aeruginosa PAO1 harboring wspF gene mutation assessed as reduction in EPS production at 0.15625 to 0.625 uM by congo red binding assay; format: functional, organism-based; conditions: dose 0.15625-0.625 µM
Quadruplex DNA = assay: Induction of c-di-GMP G-quadruplex formation (unknown origin) measured at 300 nanometer by CD spectroscopy; format: nucleic-acid assay
Pseudomonas aeruginosa [30] = assay: Antibacterial activity against Pseudomonas aeruginosa PAO1 harboring wspF gene mutation assessed as reduction in bacterial growth at 0.15625 to 2.5 uM by confocal microscopic method; format: functional, organism-based; conditions: dose 0.15625-2.5 µM
c-di-GMP G-quadruplex [31] = assay: Induction of c-di-GMP G-quadruplex formation in Pseudomonas aeruginosa PAO1 harboring wspF gene mutation assessed as induction of flgA expression at 1.25 uM incubated for 15 hrs by transcriptome analysis
Pseudomonas aeruginosa [32] = assay: Antibacterial activity against Pseudomonas aeruginosa PAO1 harboring wspF gene mutation assessed as reduction in bacterial growth at 512 uM by crystal violet staining assay relative to control; format: functional, organism-based
c-di-GMP G-quadruplex [33] = assay: Induction of c-di-GMP G-quadruplex formation in Pseudomonas aeruginosa PAO1 harboring wspF gene mutation assessed as inhibition of biofilm formation incubated for 24 hrs by confocal microscopic method; format: nucleic-acid assay
c-di-GMP G-quadruplex [34] = assay: Induction of c-di-GMP G-quadruplex formation in Pseudomonas aeruginosa PAO1 harboring wspF gene mutation assessed as induction of fleN expression at 1.25 uM incubated for 15 hrs by transcriptome analysis

**Q.** For `COc1cc(/C=C/c2sc3ccccc3[n+]2C)ccc1O.[I-]`, which Activity (Pseudomonas aeruginosa [1]) is on record?
**A.** The Activity was 34%.

**Q.** And the Activity (Bacteria [2])?
**A.** The Activity was “inactive”.

**Q.** What about the Activity (c-di-GMP G-quadruplex [3]) of the same molecule?
**A.** Its Activity is “Active”.

**Q.** What about the Activity (Pseudomonas aeruginosa [4]) of the same molecule?
**A.** Its Activity is 77%.

**Q.** What about the viability at 24 h, up to 10 µM [5] of the same molecule?
**A.** Its viability at 24 h, up to 10 µM is over 90%.

**Q.** What about the Activity (Pseudomonas aeruginosa [6]) of the same molecule?
**A.** The Activity was “Active”.

**Q.** And the Activity (c-di-GMP G-quadruplex [7])?
**A.** The Activity was “Active”.

**Q.** And the Activity (c-di-GMP G-quadruplex [8])?
**A.** The Activity was “Active”.

**Q.** And the Activity (c-di-GMP G-quadruplex [9])?
**A.** The Activity was “Active”.

**Q.** What about the Activity [10] of the same molecule?
**A.** The Activity was “Active”.

**Q.** What about the Activity [11] of the same molecule?
**A.** The Activity was “Active”.

**Q.** And the Activity (c-di-GMP G-quadruplex [12])?
**A.** The Activity was “Active”.

**Q.** And the Activity (c-di-GMP G-quadruplex [13])?
**A.** The Activity was “Active”.

**Q.** And the Activity (c-di-GMP G-quadruplex [14])?
**A.** Its Activity is “Active”.

**Q.** And the IC50 (c-di-GMP G-quadruplex [15])?
**A.** Its IC50 is 880 nM.

**Q.** What about the Activity [16] of the same molecule?
**A.** Its Activity is “Active”.

**Q.** What about the inhibition (c-di-GMP G-quadruplex [17]) of the same molecule?
**A.** Its inhibition is 62.2%.

**Q.** What about the Activity (c-di-GMP G-quadruplex [18]) of the same molecule?
**A.** The Activity was “Active”.

**Q.** And the Activity [19]?
**A.** Its Activity is “Active”.

**Q.** What about the Activity (c-di-GMP G-quadruplex [20]) of the same molecule?
**A.** The Activity was “Active”.

**Q.** And the viability at 24 h, 1.25 µM [21]?
**A.** The viability at 24 h, 1.25 µM was 96%.

**Q.** What about the Activity (Pseudomonas aeruginosa [22]) of the same molecule?
**A.** Its Activity is 15%.

**Q.** And the Activity (Pseudomonas aeruginosa [23])?
**A.** Its Activity is 30%.

**Q.** And the Activity (c-di-GMP G-quadruplex [24])?
**A.** Its Activity is “Active”.

**Q.** And the Activity (DNA)?
**A.** Its Activity is “Non-Toxic”.

**Q.** What about the Activity (c-di-GMP G-quadruplex [25]) of the same molecule?
**A.** Its Activity is “Active”.

**Q.** And the Activity (Bacteria [26])?
**A.** The Activity was “inactive”.

**Q.** What about the Activity (c-di-GMP G-quadruplex [27]) of the same molecule?
**A.** Its Activity is “Active”.

**Q.** And the Activity (c-di-GMP G-quadruplex [28])?
**A.** The Activity was “Active”.

**Q.** And the Activity (Pseudomonas aeruginosa [29])?
**A.** Its Activity is “Active”.

**Q.** What about the Activity (Quadruplex DNA) of the same molecule?
**A.** The Activity was “Active”.

**Q.** What about the Activity (Pseudomonas aeruginosa [30]) of the same molecule?
**A.** The Activity was “inactive”.

**Q.** What about the Activity (c-di-GMP G-quadruplex [31]) of the same molecule?
**A.** The Activity was “Active”.

**Q.** And the Activity (Pseudomonas aeruginosa [32])?
**A.** Its Activity is “inactive”.

**Q.** And the Activity (c-di-GMP G-quadruplex [33])?
**A.** Its Activity is “Dose-Dependent Effect”.

**Q.** And the Activity (c-di-GMP G-quadruplex [34])?
**A.** The Activity was “Active”.

Reference: ChEMBL document CHEMBL4808221, “Design and Synthesis of Novel c-di-GMP G-Quadruplex Inducers as Bacterial Biofilm Inhibitors” (J Med Chem, 2021)
